The values that follow come from patent publication US8399465B2, “Compounds with two fused bicyclic heteroaryl moieties as modulators of leukotriene A4 hydrolase” (Janssen Pharmaceutica NV, priority 2009, dated 2013).

Where a name gives a salt, the structure may show the parent alone. Where only a bound is given, the exact number is not on record here.

This assay addresses T1, recombinant human LTA4 hydrolase (rhLTA4H) (Homo sapiens, UniProt P09960).
T1 construct: made in house; host or cells: Spodoptera frugiperda (Sf-9) cells, baculovirus (pFastBac1)
T1 sequence (P09960 1-611): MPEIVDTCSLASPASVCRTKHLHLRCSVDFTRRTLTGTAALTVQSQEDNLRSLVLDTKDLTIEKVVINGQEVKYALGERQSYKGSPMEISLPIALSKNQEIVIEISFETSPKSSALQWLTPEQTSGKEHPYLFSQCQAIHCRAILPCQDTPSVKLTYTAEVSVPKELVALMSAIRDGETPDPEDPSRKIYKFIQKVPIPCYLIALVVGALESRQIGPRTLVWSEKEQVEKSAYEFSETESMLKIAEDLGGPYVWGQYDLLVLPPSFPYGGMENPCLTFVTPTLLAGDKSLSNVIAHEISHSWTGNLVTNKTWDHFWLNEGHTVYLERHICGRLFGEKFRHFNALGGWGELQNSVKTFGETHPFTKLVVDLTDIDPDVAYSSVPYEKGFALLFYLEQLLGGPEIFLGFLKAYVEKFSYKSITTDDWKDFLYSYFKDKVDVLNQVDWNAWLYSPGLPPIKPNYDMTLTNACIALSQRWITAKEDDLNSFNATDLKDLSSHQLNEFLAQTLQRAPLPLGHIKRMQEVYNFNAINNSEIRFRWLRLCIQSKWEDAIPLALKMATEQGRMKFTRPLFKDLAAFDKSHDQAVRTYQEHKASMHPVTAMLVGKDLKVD
The assay is described as follows: Recombinant human LTA4 hydrolase assay for LTA4 hydrolase inhibitor activity. Format: biochemical. As to conditions: rhLTA4H, LTB4 by immunoassay; single determination or average of two or more; mark after value = form tested: ′ free base, ″ hydrochloride, ^ formate; read-out: IC50. On the procedure:
Assay 1: Recombinant Human LTA4 Hydrolase Assay for LTA4 Hydrolase Inhibitor Activity
Compounds of the present invention were tested for LTA4 hydrolase inhibitor activity against recombinant human LTA4 hydrolase (rhLTA4H). Vectors were prepared and used to express rhLTA4H essentially as follows: LTA4 hydrolase encoding DNA was amplified by polymerase chain reaction (PCR) using a human placental cDNA library as a template. […] The amplified 1.9 kb DNA fragment encoding LTA4 hydrolase was isolated and cloned into the pFastBac1 vector (Invitrogen). Recombinant baculovirus was generated as described by the manufacturer, and used to infect Spodoptera frugiperda (Sf-9) cells. […] The purified enzyme solution was adjusted to contain 0.29 mg/mL LTA4 hydrolase, 50 mM Tris (pH 8.0), 150 mM NaCl, 5 mM dithiothreitol, 50% glycerol, and EDTA-free Complete protease inhibitor cocktail (Roche).
LTA4 substrate was prepared from the methyl ester of LTA4 (Cayman Chemical) by treatment with 67 equiv of NaOH under nitrogen at rt for 40 min. The LTA4 substrate in its free acid form was kept frozen at −80° C. until needed. Each compound was diluted to different concentrations in assay buffer (from Assay Designs) containing 10% DMSO. A 25-μL aliquot of each compound dilution was incubated for 10 min at rt with an equal volume of assay buffer containing 10 ng of recombinant human LTA4H. The solution was then adjusted to 200 μL with assay buffer. […] Each reaction was carried out at rt for 30 min. The reaction was stopped by diluting 10 μL of the reaction mixture with 200 μL of assay buffer. LTB4 was quantified in the diluted sample by a commercially available enzyme-linked immunoassay (Cayman Chemical Co.), as recommended by the manufacturer. Positive controls, under essentially identical conditions but without addition of an inhibitor compound, and negative controls, containing all assay components except enzyme, were routinely run in each experiment. IC50 values were determined by nonlinear regression of the activity data at different compound concentrations using Graphpad Prism 4.0, one site binding competition.
The values presented here are the result of a single determination or an average of two or more determinations. Compounds that were not tested are indicated as such by a “NT” designation.
`c1cnc2nc(Oc3ccc4cc(CN5CC6COCC6C5)oc4c3)sc2c1` (stereo not shown) [Example 110, 2-[2-(Tetrahydro-furo[3,4-c]pyrrol-5-ylmethyl)-benzofuran-6-yloxy]-thiazolo[4,5-b]pyridine formate]: the IC50 (usually the concentration at which inhibition is half-maximal) was 207 nM.
Consider `c1cnc(N2CCN(Cc3coc4cc(Oc5nc6ncccc6s5)ccc34)CC2)nc1` [Example 292, 2-[3-(4-Pyrimidin-2-yl-piperazin-1-ylmethyl)-benzofuran-6-yloxy]-thiazolo[4,5-b]pyridine formate], for which the IC50 was found to be 40 nM.
Consider `O=C(c1ccccc1)C1CCN(C(=O)c2coc3cc(Oc4nc5ncccc5s4)ccc23)CC1` [Example 387, (4-Benzoyl-piperidin-1-yl)-[6-(thiazolo[4,5-b]pyridin-2-yloxy)-benzofuran-3-yl]-methanone], for which the IC50 worked out at 150 nM.
On to `C[C@H]1COCCN1Cc1cc2cc(Oc3nc4ncccc4s3)ccc2o1` [Example 98, (3S)-2-[2-(3-Methyl-morpholin-4-ylmethyl)-benzofuran-5-yloxy]-thiazolo[4,5-b]pyridine], for which the IC50 was determined as 153 nM.
Turning to `CC(=O)N[C@H]1C[C@H]2CC[C@@H](C1)N2Cc1cc2cc(Oc3nc4cccnc4s3)ccc2o1` [Example 125, meso-endo-N-{8-[5-(Thiazolo[5,4-b]pyridin-2-yloxy)-benzofuran-2-ylmethyl]-8-aza-bicyclo[3.2.1]oct-3-yl}-acetamide], the IC50 is 200 nM.
Take `CNC(=O)C1CCN(Cc2cc3ccc(Oc4nc5ncccc5s4)cc3o2)CC1` [Example 204, 1-[6-(Thiazolo[4,5-b]pyridin-2-yloxy)-benzofuran-2-ylmethyl]-piperidine-4-carboxylic acid methylamide]: the IC50 came to 169 nM.
Regarding `CCN(CC)CCNCc1coc2cc(Oc3nc4ncccc4s3)ccc12` [Example 317, N,N-Diethyl-N′-[6-(thiazolo[4,5-b]pyridin-2-yloxy)-benzofuran-3-ylmethyl]-ethane-1,2-diamine], the IC50 came to 35 nM.
As to `c1cnc2nc(Oc3ccc4cc(CN5C[C@@H]6C[C@H]5CO6)oc4c3)sc2c1` [Example 109, (1S,4S)-2-[2-(2-Oxa-5-aza-bicyclo[2.2.1]hept-5-ylmethyl)-benzofuran-6-yloxy]-thiazolo[4,5-b]pyridine formate], the IC50 is 186 nM.
For `NC(=O)C1CCN(CCc2c[nH]c3ccc(Oc4nc5ccccc5s4)cc23)CC1` [Example 75, 1-{2-[5-(Benzothiazol-2-yloxy)-1H-indol-3-yl]-ethyl}-piperidine-4-carboxylic acid amide], the IC50 stood at 714 nM.
As for `CC(=O)N1C[C@@H]2C[C@H]1CN2Cc1cc2cc(Oc3nc4cccnc4s3)ccc2o1` [Example 121, (1S,4S)-1-{5-[5-(Thiazolo[5,4-b]pyridin-2-yloxy)-benzofuran-2-ylmethyl]-2,5-diaza-bicyclo[2.2.1]hept-2-yl}-ethanone], the figure is 488 nM; as for `c1ccc2sc(Oc3ccc4cc(CN5CCCCC5)sc4c3)nc2c1` [Example 132, 2-(2-Piperidin-1-ylmethyl-benzo[b]thiophen-6-yloxy)-benzothiazole], 720 nM.
The same measure for `CCN(C(=O)c1coc2cc(Oc3nc4ncccc4s3)ccc12)C1CCCCC1` [Example 381, 6-(Thiazolo[4,5-b]pyridin-2-yloxy)-benzofuran-3-carboxylic acid cyclohexyl-ethyl-amide]: 110 nM.
As to `CC(=O)NC1CCN(Cc2coc3cc(Oc4nc5ncc(Cl)cc5s4)ccc23)CC1` [Example 254, N-{1-[6-(6-Chloro-thiazolo[4,5-b]pyridin-2-yloxy)-benzofuran-3-ylmethyl]-piperidin-4-yl}-acetamide formate], the IC50 came to 108 nM.
In the case of `CC(=O)N1C[C@@H]2C[C@H]1CN2Cc1coc2cc(Oc3nc4cccnc4s3)ccc12` [Example 221, (1S,4S)-1-{5-[6-(Thiazolo[5,4-b]pyridin-2-yloxy)-benzofuran-3-ylmethyl]-2,5-diaza-bicyclo[2.2.1]hept-2-yl}-ethanone], the IC50 turned out to be 227 nM.
With `c1cnc2nc(Oc3ccc4c(CNCCN5CCCCC5)coc4c3)sc2c1` [Example 305, (2-Piperidin-1-yl-ethyl)-[6-(thiazolo[4,5-b]pyridin-2-yloxy)-benzofuran-3-ylmethyl]-amine], the IC50 was determined as 31 nM.
`CNC(=O)c1coc2cc(Oc3nc4ncccc4s3)ccc12` [Example 367, 6-(Thiazolo[4,5-b]pyridin-2-yloxy)-benzofuran-3-carboxylic acid methylamide]: the IC50 turned out to be 160 nM.
Consider `CCn1c(CN2CCOCC2)cc2cc(Oc3nc4ccccc4s3)ccc21` [Example 63, 2-(1-Ethyl-2-morpholin-4-ylmethyl-1H-indol-5-yloxy)-benzothiazole], for which the half-maximal inhibitory concentration (IC50) was 1640 nM.
Regarding `CC(=O)N[C@H]1C[C@H]2CC[C@@H](C1)N2Cc1cc2ccc(Oc3nc4cnccc4s3)cc2o1` [Example 201, meso-endo-N-{8-[6-(Thiazolo[4,5-c]pyridin-2-yloxy)-benzofuran-2-ylmethyl]-8-aza-bicyclo[3.2.1]oct-3-yl}-acetamide], the IC50 is 236 nM.
Turning to `CC(=O)NC1CCN(Cc2coc3cc(Oc4nc5nc(C)ccc5s4)ccc23)CC1` [Example 250, N-{1-[6-(5-Methyl-thiazolo[4,5-b]pyridin-2-yloxy)-benzofuran-3-ylmethyl]-piperidin-4-yl}-acetamide formate], the IC50 turned out to be 467 nM.
The same measure for `CN(C)CCCN(C)C(=O)c1coc2cc(Oc3nc4ncccc4s3)ccc12` [Example 388, 6-(Thiazolo[4,5-b]pyridin-2-yloxy)-benzofuran-3-carboxylic acid (3-dimethylamino-propyl)-methyl-amide]: 150 nM; for `NC(=O)N1C[C@H]2CC[C@@H](C1)N2Cc1cc2cc(Oc3nc4ccccc4s3)ccc2o1` [Example 173, meso-8-[5-(Benzothiazol-2-yloxy)-benzofuran-2-ylmethyl]-3,8-diaza-bicyclo[3.2.1]octane-3-carboxylic acid amide]: 187 nM; for `c1ccc2sc(Oc3ccc4cc(CN5CCCCC5)oc4c3)nc2c1` [Example 406, 2-(2-Piperidin-1-ylmethyl-benzofuran-6-yloxy)-benzothiazole]: 492 nM.
For the compound `NC(=O)C1CCN(Cc2cc3ccc(Oc4nc5ncccc5s4)cc3s2)CC1` [Example 138, 1-[6-(Thiazolo[4,5-b]pyridin-2-yloxy)-benzo[b]thiophen-2-ylmethyl]-piperidine-4-carboxylic acid amide], the IC50 is 169 nM.
`CCN(Cc1coc2cc(Oc3nc4ncccc4s3)ccc12)C1CCCCC1` [Example 318, Cyclohexyl-ethyl-[6-(thiazolo[4,5-b]pyridin-2-yloxy)-benzofuran-3-ylmethyl]-amine formate]: the IC50 was < 1 nM.
Turning to `CS(=O)(=O)NC1CCN(Cc2cc3ccc(Oc4nc5ncccc5s4)cc3o2)C1` (stereo not shown) [Example 128, N-(1-{[6-([1,3]thiazolo[4,5-b]pyridin-2-yloxy)-1-benzofuran-2-yl]methyl}pyrrolidin-3-yl)methanesulfonamide formate], the IC50 was 84 nM.
As for `CC(=O)N1C[C@@H]2C[C@H]1CN2Cc1cc2ccc(Oc3nc4cnccc4s3)cc2o1` [Example 203, (1S,4S)-1-{5-[6-(Thiazolo[4,5-c]pyridin-2-yloxy)-benzofuran-2-ylmethyl]-2,5-diaza-bicyclo[2.2.1]hept-2-yl}-ethanone], the figure is 2570 nM.
The same measure for `FC(F)(F)C1CCN(Cc2coc3cc(Oc4nc5ncccc5s4)ccc23)CC1` [Example 163, 2-[3-(4-Trifluoromethyl-piperidin-1-ylmethyl)-benzofuran-6-yloxy]-thiazolo[4,5-b]pyridine]: 107 nM; for `c1ccc2sc(Oc3ccc4[nH]cc(CN5CCCCC5)c4c3)nc2c1` [Example 10, 2-(3-Piperidin-1-ylmethyl-1H-indol-5-yloxy)-benzothiazole]: 415 nM.
